Consider 6 compounds from article PMC11378028 (RSC Advances, 2024).

The test system of one experiment is K. pneumoniae SE K13. Put plainly: MIC against fluoroquinolone-resistant clinical isolate. The format is cell-based. The note with it: Klebsiella pneumoniae, SEK13, read-out: MIC K. pneumoniae SE K13.
The target of experiment [1] is human DNA topoisomerase IIα (Homo sapiens, UniProt P11388). The experiment in a line: human DNA topoisomerase IIα inhibition. The class given is biochemical.
Experiment [2] has as its system K. pneumoniae ATCC 10031. The experiment in a line: MIC, broth microdilution. The class given is cell-based. Conditions: Klebsiella pneumoniae, ATCC10031, read-out: MIC K. pneumoniae ATCC 10031.
For a further experiment, the target named is E. coli topoisomerase IV (Escherichia coli, UniProt P20083). Put plainly: topoisomerase IV relaxation plate assay. The format is biochemical.
In experiment [3] the test system is K. pneumoniae ATCC 10031. The experiment in a line: spontaneous frequency of resistance. The class given is cell-based, Klebsiella pneumoniae.
The test system of a further experiment is K. pneumoniae NCTC 13440. The experiment in a line: MIC against fluoroquinolone-resistant clinical isolate. The class given is cell-based. Conditions: Klebsiella pneumoniae, NCTC13440, read-out: MIC K. pneumoniae NCTC 13440.
In a further experiment the test system is MRSA clinical isolate-1. The experiment is described as above. The class given is cell-based. Conditions: Staphylococcus aureus, read-out: MIC MRSA clinical isolate-1.
The next experiment relates to A. baumannii ATCC 19606. The experiment in a line: MIC, broth microdilution. The note with it: Acinetobacter baumannii, ATCC19606, read-out: MIC A. baumannii ATCC 19606. The format is cell-based.
The next experiment has as its system K. pneumoniae SE K14. Put plainly: MIC against fluoroquinolone-resistant clinical isolate. The class given is cell-based. The note with it: Klebsiella pneumoniae, SEK14, read-out: MIC K. pneumoniae SE K14.
Experiment [4] deals with E. spp. cloacae ATCC 13047. Put plainly: MIC, broth microdilution. The class given is cell-based. The note with it: read-out: MIC E. spp. cloacae ATCC 13047.
The test system of a further experiment is K. pneumoniae K9–K25. The experiment in a line: MIC against fluoroquinolone-resistant clinical isolate. The format is cell-based. The note with it: Klebsiella pneumoniae, read-out: MIC K. pneumoniae K9–K25.
A further experiment concerns E. faecalis ATCC 29212. The experiment in a line: MIC, broth microdilution. The format is cell-based. The note with it: Enterococcus faecalis, ATCC29212, read-out: MIC E. faecalis ATCC 29212.
The test system of experiment [5] is S. aureus ATCC 29213. Put plainly: MIC, broth microdilution. Conditions: for MIC: Staphylococcus aureus, ATCC29213, read-out: MIC S. aureus ATCC 29213, broth microdilution. The format is cell-based, Staphylococcus aureus.
In the next experiment the test system is MRSA clinical isolate-2. Put plainly: MIC against fluoroquinolone-resistant clinical isolate. The format is cell-based. Conditions: Staphylococcus aureus, read-out: MIC MRSA clinical isolate-2.
Experiment [6] deals with K. pneumoniae ATCC 700603. The experiment in a line: MIC, broth microdilution. Conditions: Klebsiella pneumoniae, ATCC700603, read-out: MIC K. pneumoniae ATCC 700603. The class given is cell-based.
A further experiment has as its system K. aerogenes ATCC 13408. Put plainly: MIC, broth microdilution. The class given is cell-based. Conditions: Klebsiella aerogenes, ATCC13408, read-out: MIC K. aerogenes ATCC 13408.
The test system of experiment [7] is S. aureus ATCC 29213 adapted lines. The experiment in a line: MIC of adapted lines. The note with it: colonies from frequency of resistance plates.
The subject of experiment [8] is S. aureus ATCC 29213. Put plainly: spontaneous frequency of resistance. The class given is cell-based, Staphylococcus aureus.
For experiment [9], the system named is S. aureus ATCC 43300 (MRSA). Put plainly: MIC, broth microdilution. The format is cell-based. Conditions: Staphylococcus aureus, ATCC43300|MRSA, read-out: MIC S. aureus ATCC 43300 (MRSA).
The subject of a further experiment is E. faecium ATCC 35667. Put plainly: MIC, broth microdilution. The class given is cell-based.
A further experiment has as its target E. coli DNA gyrase (Escherichia coli, UniProt P0AES6). Put plainly: DNA gyrase supercoiling plate assay. The note with it: IC50 E. coli gyrase, supercoiling assay. The format is biochemical.
A further experiment concerns the target S. aureus DNA gyrase (Staphylococcus aureus, UniProt P0A0K8). Put plainly: DNA gyrase supercoiling plate assay. The format is biochemical. The note with it: read-out: RA (residual activity) S. aureus gyrase.
Experiment [10] has as its target S. aureus topoisomerase IV (Staphylococcus aureus, UniProt P0C1S7). The experiment in a line: topoisomerase IV relaxation plate assay. The format is biochemical. Conditions: read-out: RA (residual activity) S. aureus topo IV.
The next experiment has as its system E. coli ATCC 25922. The experiment in a line: MIC, broth microdilution. The class given is cell-based. Conditions: Escherichia coli, ATCC25922, read-out: MIC E. coli ATCC 25922.
The next experiment deals with P. aeruginosa ATCC 27853. The experiment in a line: MIC, broth microdilution. The class given is cell-based. The note with it: Pseudomonas aeruginosa, ATCC27853, read-out: MIC P. aeruginosa ATCC 27853.
In a further experiment the test system is A. baumannii ATCC 17978. Put plainly: MIC, broth microdilution. Conditions: Acinetobacter baumannii, ATCC17978, read-out: MIC A. baumannii ATCC 17978. The format is cell-based.
A further experiment concerns the target P. aeruginosa DNA gyrase (Pseudomonas aeruginosa, UniProt Q9I7C2). Put plainly: DNA gyrase supercoiling assay. The format is biochemical.
Another experiment has as its target A. baumannii DNA gyrase (Acinetobacter baumannii, UniProt A0ABX6CA01). Put plainly: DNA gyrase supercoiling assay. The class given is biochemical.
[11] abbreviates: read-out: RA (residual activity) Human topo IIα.

Converted amounts (≈) assume the structure as drawn.

Sequence of E. coli topoisomerase IV (P20083 whole entry): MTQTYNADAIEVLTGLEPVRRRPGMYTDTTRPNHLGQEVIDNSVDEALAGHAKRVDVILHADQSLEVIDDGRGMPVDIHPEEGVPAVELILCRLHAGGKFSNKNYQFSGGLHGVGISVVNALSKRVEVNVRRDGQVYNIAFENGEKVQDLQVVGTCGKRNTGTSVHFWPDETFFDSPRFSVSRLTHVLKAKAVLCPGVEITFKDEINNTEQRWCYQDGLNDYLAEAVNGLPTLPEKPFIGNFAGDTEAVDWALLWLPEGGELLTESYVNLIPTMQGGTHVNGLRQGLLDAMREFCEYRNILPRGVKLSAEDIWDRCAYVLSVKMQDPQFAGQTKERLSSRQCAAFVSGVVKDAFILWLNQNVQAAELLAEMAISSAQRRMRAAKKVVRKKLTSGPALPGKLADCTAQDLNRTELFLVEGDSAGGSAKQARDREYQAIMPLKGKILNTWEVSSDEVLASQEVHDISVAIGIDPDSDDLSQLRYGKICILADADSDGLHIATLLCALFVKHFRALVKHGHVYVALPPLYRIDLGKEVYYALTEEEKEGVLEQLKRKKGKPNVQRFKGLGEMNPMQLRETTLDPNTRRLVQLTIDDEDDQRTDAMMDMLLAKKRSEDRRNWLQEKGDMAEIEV
Sequence of E. coli topoisomerase IV (P0AFI2 whole entry partner): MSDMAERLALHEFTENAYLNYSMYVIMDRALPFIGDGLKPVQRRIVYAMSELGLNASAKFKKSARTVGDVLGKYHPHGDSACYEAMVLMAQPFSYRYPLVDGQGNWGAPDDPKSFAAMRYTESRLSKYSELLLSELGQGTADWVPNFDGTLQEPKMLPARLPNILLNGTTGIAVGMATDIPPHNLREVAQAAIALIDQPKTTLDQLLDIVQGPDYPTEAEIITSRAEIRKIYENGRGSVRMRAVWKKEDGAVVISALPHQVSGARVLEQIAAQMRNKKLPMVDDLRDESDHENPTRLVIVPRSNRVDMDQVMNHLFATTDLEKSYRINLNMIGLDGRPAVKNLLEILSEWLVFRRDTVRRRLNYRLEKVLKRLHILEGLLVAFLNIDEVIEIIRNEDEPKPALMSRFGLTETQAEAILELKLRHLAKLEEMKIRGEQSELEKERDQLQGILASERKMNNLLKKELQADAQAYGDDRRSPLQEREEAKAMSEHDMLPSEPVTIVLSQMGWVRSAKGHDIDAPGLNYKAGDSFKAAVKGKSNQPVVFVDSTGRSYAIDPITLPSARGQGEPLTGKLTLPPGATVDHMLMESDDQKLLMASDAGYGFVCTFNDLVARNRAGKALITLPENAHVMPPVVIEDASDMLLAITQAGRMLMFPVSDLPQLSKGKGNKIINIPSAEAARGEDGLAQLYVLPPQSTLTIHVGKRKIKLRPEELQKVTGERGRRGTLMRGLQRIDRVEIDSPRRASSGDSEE
Sequence of human DNA topoisomerase IIα (P11388 whole entry): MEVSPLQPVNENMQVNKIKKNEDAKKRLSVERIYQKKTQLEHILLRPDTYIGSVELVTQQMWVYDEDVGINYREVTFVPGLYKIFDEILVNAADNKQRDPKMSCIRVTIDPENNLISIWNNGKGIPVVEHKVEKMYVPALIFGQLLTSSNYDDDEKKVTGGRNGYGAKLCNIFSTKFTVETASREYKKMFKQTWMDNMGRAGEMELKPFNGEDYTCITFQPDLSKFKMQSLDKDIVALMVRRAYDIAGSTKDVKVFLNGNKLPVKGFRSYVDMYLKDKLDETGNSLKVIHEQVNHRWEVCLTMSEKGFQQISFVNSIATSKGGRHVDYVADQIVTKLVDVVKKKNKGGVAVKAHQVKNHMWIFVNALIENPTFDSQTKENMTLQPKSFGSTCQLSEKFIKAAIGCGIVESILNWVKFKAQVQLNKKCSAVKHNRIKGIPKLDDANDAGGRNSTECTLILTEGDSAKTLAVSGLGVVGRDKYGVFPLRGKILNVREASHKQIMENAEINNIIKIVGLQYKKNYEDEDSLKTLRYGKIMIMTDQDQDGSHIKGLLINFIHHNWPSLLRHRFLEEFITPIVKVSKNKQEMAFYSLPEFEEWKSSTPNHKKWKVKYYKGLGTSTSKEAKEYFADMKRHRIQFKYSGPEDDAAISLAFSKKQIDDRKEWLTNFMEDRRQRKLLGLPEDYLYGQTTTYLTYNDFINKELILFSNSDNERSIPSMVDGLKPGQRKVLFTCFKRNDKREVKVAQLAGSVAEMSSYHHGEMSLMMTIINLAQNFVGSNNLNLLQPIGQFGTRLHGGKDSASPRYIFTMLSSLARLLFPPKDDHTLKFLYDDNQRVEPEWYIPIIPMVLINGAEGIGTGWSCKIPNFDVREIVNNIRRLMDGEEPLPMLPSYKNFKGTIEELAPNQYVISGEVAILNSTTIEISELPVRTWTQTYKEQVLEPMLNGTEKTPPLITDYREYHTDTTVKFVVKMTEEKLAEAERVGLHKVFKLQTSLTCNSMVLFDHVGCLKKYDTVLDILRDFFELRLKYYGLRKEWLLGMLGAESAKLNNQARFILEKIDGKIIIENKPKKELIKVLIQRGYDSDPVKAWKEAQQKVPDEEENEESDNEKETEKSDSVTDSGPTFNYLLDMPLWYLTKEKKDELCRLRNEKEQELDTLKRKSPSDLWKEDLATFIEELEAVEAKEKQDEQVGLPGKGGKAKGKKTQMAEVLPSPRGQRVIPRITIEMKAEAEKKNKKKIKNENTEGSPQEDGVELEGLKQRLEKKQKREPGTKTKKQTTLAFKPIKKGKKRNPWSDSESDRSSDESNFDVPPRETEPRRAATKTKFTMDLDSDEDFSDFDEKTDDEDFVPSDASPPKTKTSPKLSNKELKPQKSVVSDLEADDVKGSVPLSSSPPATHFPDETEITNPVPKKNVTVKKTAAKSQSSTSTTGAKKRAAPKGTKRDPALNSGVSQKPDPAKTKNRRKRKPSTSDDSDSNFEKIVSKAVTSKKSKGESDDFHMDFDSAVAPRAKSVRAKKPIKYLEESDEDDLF
Sequence of S. aureus DNA gyrase (P0A0K8 whole entry): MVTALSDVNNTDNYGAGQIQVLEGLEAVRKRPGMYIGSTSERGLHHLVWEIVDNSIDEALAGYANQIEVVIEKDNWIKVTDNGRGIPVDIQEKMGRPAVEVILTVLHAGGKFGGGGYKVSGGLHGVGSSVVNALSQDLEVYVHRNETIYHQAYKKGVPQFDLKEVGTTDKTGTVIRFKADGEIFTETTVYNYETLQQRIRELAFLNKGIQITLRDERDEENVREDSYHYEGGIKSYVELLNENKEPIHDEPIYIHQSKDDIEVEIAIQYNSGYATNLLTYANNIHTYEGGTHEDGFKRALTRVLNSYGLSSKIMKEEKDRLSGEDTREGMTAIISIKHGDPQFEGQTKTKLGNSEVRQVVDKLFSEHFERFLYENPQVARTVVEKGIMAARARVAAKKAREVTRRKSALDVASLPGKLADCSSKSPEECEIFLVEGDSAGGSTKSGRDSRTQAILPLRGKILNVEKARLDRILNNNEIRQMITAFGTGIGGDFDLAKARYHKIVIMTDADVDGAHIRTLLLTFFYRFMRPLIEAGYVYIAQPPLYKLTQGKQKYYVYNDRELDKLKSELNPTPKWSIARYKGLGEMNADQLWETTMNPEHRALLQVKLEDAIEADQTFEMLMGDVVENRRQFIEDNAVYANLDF
Sequence of S. aureus DNA gyrase (P20831 whole entry partner): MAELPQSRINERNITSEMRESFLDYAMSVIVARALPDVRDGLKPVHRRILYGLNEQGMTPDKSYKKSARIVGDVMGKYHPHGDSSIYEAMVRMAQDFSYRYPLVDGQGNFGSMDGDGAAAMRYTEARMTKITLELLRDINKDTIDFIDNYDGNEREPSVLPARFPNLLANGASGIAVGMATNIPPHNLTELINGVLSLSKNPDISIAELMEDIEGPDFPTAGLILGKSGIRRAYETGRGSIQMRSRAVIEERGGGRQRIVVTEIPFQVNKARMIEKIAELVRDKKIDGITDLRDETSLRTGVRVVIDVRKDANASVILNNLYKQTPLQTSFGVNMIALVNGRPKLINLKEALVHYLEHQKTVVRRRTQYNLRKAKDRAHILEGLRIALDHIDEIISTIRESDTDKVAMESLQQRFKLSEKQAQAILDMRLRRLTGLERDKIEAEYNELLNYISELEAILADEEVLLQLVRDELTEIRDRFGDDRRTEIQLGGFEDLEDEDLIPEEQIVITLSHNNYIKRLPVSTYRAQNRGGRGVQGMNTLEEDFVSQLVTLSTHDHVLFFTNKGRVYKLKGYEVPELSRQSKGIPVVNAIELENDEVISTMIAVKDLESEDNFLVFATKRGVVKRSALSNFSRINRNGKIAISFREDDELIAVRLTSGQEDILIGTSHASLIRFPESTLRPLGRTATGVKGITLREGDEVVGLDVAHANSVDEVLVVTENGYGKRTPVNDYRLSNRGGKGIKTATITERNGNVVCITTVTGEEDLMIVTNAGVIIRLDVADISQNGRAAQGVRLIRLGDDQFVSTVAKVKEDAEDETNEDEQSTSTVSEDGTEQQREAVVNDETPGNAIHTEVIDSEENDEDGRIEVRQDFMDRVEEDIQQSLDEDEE

For the compound `Cc1[nH]c(C(=O)Nc2ccc(-c3n[nH]c(=O)o3)cc2N2CCC[C@H](N)C2)c(Cl)c1Cl.Cl` [Compound 23c, (S)-1-(2-(3,4-Dichloro-5-methyl-1H-pyrrole-2-carboxamido)-5-(5-oxo-4,5-dihydro-1,3,4-oxadiazol-2-yl)phenyl)piperidin-3-aminium chloride], the minimal inhibitory concentration (MIC) was 32 µg/mL with K. pneumoniae SE K13; 0.25 µg/mL with K. pneumoniae ATCC 10031 [2]; over 64 µg/mL in the experiment on K. pneumoniae NCTC 13440; 4 µg/mL in the experiment on MRSA clinical isolate-1; 4 µg/mL in the experiment with A. baumannii ATCC 19606; over 64 µg/mL in the experiment on K. pneumoniae SE K14. Moreover, the minimum inhibitory concentration (MIC) was over 64 µg/mL in experiment [4]; over 64 µg/mL in the experiment with K. pneumoniae K9–K25; 2 µg/mL in the experiment with E. faecalis ATCC 29212; 2 µg/mL with S. aureus ATCC 29213 [5]; 2 µg/mL in the experiment with MRSA clinical isolate-2; over 32 µg/mL in experiment [6]. In addition, the minimal inhibitory concentration (MIC) with K. aerogenes ATCC 13408 is over 32 µg/mL; in experiment [9] it was 2 µg/mL. Further, in [1] (setting [11]), the remaining activity at 50 µM was 90%. Also, the IC50 against E. coli topoisomerase IV amounted to 448 nM. The “resistance-proneness compared to novobiocin” value in the experiment with K. pneumoniae ATCC 10031 [3] and in the experiment with S. aureus ATCC 29213 [8] was “significantly less resistance-prone compared to novobiocin” each time. Moreover, the “change in MIC values compared to the ancestor” value in [7] came to 4 fold.

On to `Cc1[nH]c(C(=O)Nc2ccc(C(=O)O)cc2N2CCN(C(=O)OC(C)(C)C)CC2)c(Cl)c1Cl` [Compound 18a, 3-(4-(tert-Butoxycarbonyl)piperazin-1-yl)-4-(3,4-dichloro-5-methyl-1H-pyrrole-2-carboxamido)benzoic acid], for which the “MIC E. faecium ATCC 35667” value against E. faecium ATCC 35667 was 16 µg/mL (≈ 32.2 µM). At E. coli DNA gyrase, this compound returned an IC50 of 159 nM. In addition, the remaining activity at 1 µM at S. aureus DNA gyrase worked out at 54%; on E. coli topoisomerase IV (read-out: RA (residual activity) E. coli topo IV), 99%; in experiment [10], 21%. Besides, the MIC in the experiment on E. coli ATCC 25922 was over 32 µg/mL; with A. baumannii ATCC 19606, over 32 µg/mL; in the experiment on S. aureus ATCC 29213 [5] it was 4 to 32 µg/mL (≈ 8.04 to 64.3 µM); in [6], over 32 µg/mL; in the experiment with K. aerogenes ATCC 13408, over 32 µg/mL; in the experiment on P. aeruginosa ATCC 27853, over 32 µg/mL. Further, the “MIC S. aureus ATCC 29213” value against S. aureus ATCC 29213 [5] (broth microdilution) was found to be 4 µg/mL (≈ 8.04 µM).

With `Cc1[nH]c(C(=O)Nc2ccc(C(=O)O)cc2N2CCCC(CN)C2)c(Cl)c1Cl.Cl` (stereo not shown) [Compound 20i, (1-(5-Carboxy-2-(3,4-dichloro-5-methyl-1H-pyrrole-2-carboxamido)phenyl)piperidin-3-yl)methanaminium chloride], the “MIC E. faecium ATCC 35667” value against E. faecium ATCC 35667 came out at 32 µg/mL. The IC50 against E. coli DNA gyrase amounted to 6.34 nM; at E. coli topoisomerase IV it was 143 nM. Further, the remaining activity at 100 µM in experiment [1] (setting [11]) is 28%. Also, at S. aureus DNA gyrase, the remaining activity at 0.1 µM is 28%. The remaining activity at 1 µM in [10] turned out to be 0%. In addition, the minimum inhibitory concentration (MIC) (in the experiment with E. coli ATCC 25922; in the experiment with A. baumannii ATCC 19606; in experiment [6]; in the experiment with K. aerogenes ATCC 13408; in the experiment with P. aeruginosa ATCC 27853) was over 32 µg/mL each time.

As for `Cc1[nH]c(C(=O)Nc2ccc(-c3n[nH]c(=O)o3)cc2N2CCOCC2)c(Cl)c1Cl` [Compound 22e, 3,4-Dichloro-5-methyl-N-(2-morpholino-4-(5-oxo-4,5-dihydro-1,3,4-oxadiazol-2-yl)phenyl)-1H-pyrrole-2-carboxamide], the minimal inhibitory concentration (MIC) is over 64 µg/mL in the experiment with A. baumannii ATCC 17978; over 64 µg/mL in the experiment with K. pneumoniae SE K13; over 64 µg/mL in the experiment with K. pneumoniae ATCC 10031 [2]; over 64 µg/mL in the experiment on K. pneumoniae NCTC 13440; 0.5 µg/mL (≈ 1.14 µM) with MRSA clinical isolate-1; over 64 µg/mL in the experiment on E. coli ATCC 25922. For the same compound, the MIC is over 64 µg/mL in the experiment with K. pneumoniae SE K14; over 64 µg/mL in [4]; over 64 µg/mL in the experiment with K. pneumoniae K9–K25; 0.125 µg/mL (≈ 0.285 µM) in the experiment with E. faecalis ATCC 29212; 0.25 µg/mL (≈ 0.57 µM) in the experiment on S. aureus ATCC 29213 [5]; 0.5 µg/mL (≈ 1.14 µM) with MRSA clinical isolate-2. Further, the MIC in the experiment on P. aeruginosa ATCC 27853 was over 64 µg/mL; in experiment [9] it was 0.25 µg/mL (≈ 0.57 µM). In addition, the remaining activity at 100 µM in experiment [1] (setting [11]) turned out to be 93%. On E. coli topoisomerase IV, this compound registered a half-inhibitory concentration (IC50) of 1230 nM.

`Cc1[nH]c(C(=O)Nc2ccc(-c3n[nH]c(=O)o3)cc2N2CC[C@H](N)C2)c(Cl)c1Cl.Cl` [Compound 23b, (S)-1-(2-(3,4-Dichloro-5-methyl-1H-pyrrole-2-carboxamido)-5-(5-oxo-4,5-dihydro-1,3,4-oxadiazol-2-yl)phenyl)pyrrolidin-3-aminium chloride]: the 50% inhibitory concentration (IC50) in experiment [1] came out at 86300 nM; against P. aeruginosa DNA gyrase it was 3.63 nM; against A. baumannii DNA gyrase, 15.3 nM. Further, the MIC was 0.0625 µg/mL in the experiment on K. pneumoniae ATCC 10031 [2]; over 64 µg/mL in the experiment with K. pneumoniae NCTC 13440; 4 µg/mL with MRSA clinical isolate-1; over 64 µg/mL with K. pneumoniae SE K14; 32 µg/mL in experiment [4]; over 64 µg/mL in the experiment on K. pneumoniae K9–K25. For the same compound, the minimal inhibitory concentration (MIC) in the experiment with E. faecalis ATCC 29212 is 1 µg/mL; in the experiment on S. aureus ATCC 29213 [5] it was 1 µg/mL; in the experiment with MRSA clinical isolate-2, 2 µg/mL; in [6], over 32 µg/mL; in the experiment with K. aerogenes ATCC 13408, over 32 µg/mL; with P. aeruginosa ATCC 27853 it was 32 µg/mL. Further, the MIC in experiment [9] stood at 2 µg/mL.

In the case of `Cc1[nH]c(C(=O)Nc2ccc(-c3n[nH]c(=O)o3)cc2N2CCNCC2)c(Cl)c1Cl.Cl` [Compound 23a, 4-(2-(3,4-Dichloro-5-methyl-1H-pyrrole-2-carboxamido)-5-(5-oxo-4,5-dihydro-1,3,4-oxadiazol-2-yl)phenyl)piperazin-1-ium chloride], the MIC with A. baumannii ATCC 17978 was over 64 µg/mL; in the experiment on K. pneumoniae SE K13 it was over 64 µg/mL; with K. pneumoniae ATCC 10031 [2], 0.25 µg/mL; in the experiment with K. pneumoniae NCTC 13440, over 64 µg/mL; with MRSA clinical isolate-1, 4 µg/mL; with E. coli ATCC 25922 it was over 64 µg/mL. For the same compound, the MIC in the experiment on K. pneumoniae SE K14 is over 64 µg/mL; in experiment [4], over 64 µg/mL; in the experiment with K. pneumoniae K9–K25 it was over 64 µg/mL; in the experiment on E. faecalis ATCC 29212, 0.5 µg/mL; in the experiment with S. aureus ATCC 29213 [5], 2 µg/mL; with MRSA clinical isolate-2 it was 2 µg/mL. Moreover, the figures for the MIC (in the experiment on P. aeruginosa ATCC 27853; in experiment [9]) were over 64 µg/mL and 4 µg/mL, respectively. Further, in experiment [1] (setting [11]), the remaining activity at 100 µM was 86%. The “resistance-proneness compared to novobiocin” value in the experiment with K. pneumoniae ATCC 10031 [3] and with S. aureus ATCC 29213 [8] was “significantly less resistance-prone compared to novobiocin” each time.
